Data set [1] concerns human fibrosarcoma strain HT-1080. Nature of the data set: In vivo tumor growth inhibitory test. The following applies: 50 mg/kg subcutaneously daily for 4 days beginning 10 days after transplantation; tumor size 18 days after transplantation; HT-1080 in nude mice. The procedure:
Cells of human fibrosarcoma strain HT-1080 (2×10^6 cells per mouse) were subcutaneously transplanted to nude mice. Three mice were used for each treated group. The compound TAN-1813 (50 mg/kg) was subcutaneously administered to the mice daily for 4 days beginning 10 days after the transplantation. Anti-tumor activity was evaluated by measuring tumor size 18 days after the transplantation of the cancer cells. Average tumor sizes of 3 mice in the untreated (C) and the compound TAN-1813-treated (T) group were measured, to determine the tumor growth inhibitory activity. The tumor size (mm^3) was calculated from the formula: 0.5×a×b^2 by measuring the major axis (mm) (a) and minor axis (mm) (b) with a calibrater.

The subject of data set [2] is NIH3T3/K-ras cells. The data set can be described thus: Cell growth-inhibitory test (MTT). To be noted: Mus musculus, NIH3T3, 72 h, 3 days incubation, read-out: concentration inhibiting the growth of NIH3T3/K-ras cells by 50%. The class given is cell-based. As for the experimental part:
The cell growth-inhibitory activity of the compound TAN-1813 was determined according to a modified method of Mosmann (Journal of Immunological Methods 65, 55 (1983) ) by using a K-ras transformant (NIH3T3/K-ras) of mouse embryonic fibroblast strain NIH3T3. That is, NIH3T3/K-ras cells were suspended in a medium at a cell density of 3×10^4 /ml. The suspension (0.1 ml per well) was dispensed into each well of a 96-well flat-bottomed plate (manufactured by Nunc) containing a solution (10 μl) of varying concentrations of the compound TAN-1813 dissolved in phosphate-buffered saline (PBS). The medium was Dulbecco modified Eagle's minimum essential medium (Whittaker Bioproducts, U.S.A.) containing 10 V/V % fetal calf serum (FCS, Whittaker Bioproducts, U.S.A.). The above plate was incubated for 3 days at 37° C. and 5% CO2. Then, 25 μl of tetrazolium salt MTT (Sigma, U.S.A.) solution (5 mg/ml) dissolved in PBS was added to each well. After incubation for 4 hours, 0.1 ml of 10% SDS solution dissolved in 0.01N hydrochloric acid was added to each well, and the plate was incubated overnight at 37° C. and 5% CO2. Absorbance at 620 nm was measured using Titertek Multiscan Spectrophotometer (Flow, U.S.A.). The growth inhibitory activity (%) was calculated from the absorbance values in the presence and absence of the compound TAN-1813.

The nature of data set [3]: Solubility. It is filed as physicochemical.
Data set [4] addresses T1, Farnesyltransferase (Rattus norvegicus, UniProt Q02293+Q04631).
T1 construct: Farnesyltransferase was prepared from rat brains; from tissue; host or cells: brain of male SD rats, 6 weeks old (Charles River); dialysed 30-50% ammonium sulfate fraction, crude enzyme solution
The data set can be described thus: Farnesyltransferase-inhibitory test (FT Assay Kit, SPA). It is filed as biochemical. To be noted: crude enzyme from rat brains; biotin-modified human lamin B C-terminal peptide, 3H-farnesylpyrophosphate; 37° C., 1 hour; read-out: concentration inhibiting farnesyltransferase activity by 50% (converted). The procedure: Farnesyltransferase was prepared from rat brains according to the method of Y. Reiss et al. (Cell 62, 81 (1990)) and all of the following procedures were performed at 4° C. That is, brains were removed from SD rats (male, 6 weeks old, Charles River) and sliced with a pair of scissors. Then 50 mM tris-hydrochloric acid buffer (pH 7.5)(2 ml per brain) containing 1 mM EDTA, 1 mM EGTA, 0.2 mM phenylmethylsulfonyl fluoride and 0.1 mM leupeptin was added. The mixture was homogenized with a Teflon homogenizer (manufactured by Hamada Rika, Japan) in ice. The extract was centrifuged at 60,000×g for 70 minutes. From the resulting supernatant, the precipitate fraction from 30 to 50 W/V % concentration of ammonium sulfate was recovered, and dialyzed overnight against 20 mM tris-hydrochloric acid buffer (pH 7.5) containing 1 mM dithiothreitol and 20 μM zinc chloride. The dialysed solution was centrifuged at 15,000×g for 10 minutes. […]
Farnesyltransferase activity was determined using FT Assay Kit (manufactured by Amersham) as follows. […] The radioactivity produced by attachment of the ^3 H-farnesylated peptide to the SPA beads was measured with a scintillation counter to determine the amount of the ^3 H-farnesylated peptide. The farnesyltransferase-inhibitory activity of the compound TAN-1813 was calculated from the counts in the presence and absence of the compound TAN-1813.

Each structure is given as a SMILES string. In brackets after ≈: the same amount, converted by molar mass.

On to `C=CC(CCCCC)C1=C(C(=O)C2C(C)C=CC3(O)CC(C(=O)O)CC(C)C23)C(=O)NC1=O` (centres unmarked) [TAN-1813, 5-[2,5-dihydro-4-(1-octen-3-yl)-2,5-dioxo-1H-pyrrole-3-carbonyl]-8a-hydroxy-4,6-dimethyl-1,2,3,4,4a,5,6,8a-octahydro-2-naphthalenecarboxylic acid], for which, in data set [1], the “tumor size ratio (T/C×100)” value came to 46%. The IC50 in data set [2] is 0.4 µg/mL (≈ 0.874 µM); in data set [4] it was 26.2 µM. In addition, the Solubility result in data set [3] (in methanol, ethyl acetate, chloroform, and dimethyl sulfoxide) is given as “Readily soluble”; in data set [3] (in water, and hexane) it was “Slightly soluble”.

(Values after patent US5498627A, “Octahydro-2-naphthalenecarboxylic acid derivative, its production and use” (Takeda Chemical Industries, Ltd., priority 1994, dated 1996).)
